Assay results: patent publication US9512315B2, “Quenching dye for labeling biomolecules and method for preparing the same” (DKC CORPORATION, priority 2013, dated 2016)
Values joined by “and” are separate entries in the source; they are usually repeats but may differ in a detail not shown here. Equal entries are not always repeated.

Assays:
Assay type in all cases: physicochemical
[1] = Test Example 1: comparison of absorption spectra; conditions: for negative absorption: FIG. 1, range of 750-800 nm
Method: (§1) LC/MS was measured by ESI (electrospray ionization) using the LC/MSD SL of Agilent Technologies. The absorption spectrum and maximum absorption wavelength (λabs) of the synthesized dye were measured with Lambda 45 of PerkinElmer. The emission spectrum and maximum emission wavelength (λfl) were measured with LS-55 of PerkinElmer.
(§2) In order to investigate the absorption intensity and spectrum of the anthraquinone compound according to the present disclosure, the absorption spectra of the compounds of Example 1 and Example 6 and commercially available BHQ-3 as a comparative example were compared. Stock solutions were prepared by dissolving the compounds of Example 1 and Example 6 according to the present disclosure in distilled water. BHQ-3 was dissolved in a small amount of DMSO according to the manufacturer's instructions and diluted with distilled water.

[2] = Maximum absorption wavelength (λabs) of the synthesized dye in PBS
Method: as §1

[3] = Solubility in water (stock solution preparation)
Method: as §2

negative absorption [1] | λabs (maximum absorption wavelength) [2] | range of absorption spectra, normalized to the maximum absorption intensity ([1]; FIG. 2) | solubility in water [3] | Structure (SMILES)
did not show negative absorption | – | – | – | CN(CCCCCCCC(=O)ON1C(=O)CCC1=O)c1ccc(/N=N/c2ccc(Nc3cc(S(=O)(=O)O)c(N)c4c3C(=O)c3ccccc3C4=O)c(S(=O)(=O)O)c2)cc1 [Example 6]
– | 472 nm and 624 nm | – | – | CN(CCCCCCCC(=O)O)c1ccc(/N=N/c2ccc(Nc3cc(S(=O)(=O)O)c(N)c4c3C(=O)c3ccccc3C4=O)c(S(=O)(=O)O)c2)cc1 [Example 5]
– | 472 nm and 624 nm | – | – | C=CS(=O)(=O)CCNC(=O)CCCCCCCN(C)c1ccc(/N=N/c2ccc(Nc3cc(S(=O)(=O)O)c(N)c4c3C(=O)c3ccccc3C4=O)c(S(=O)(=O)O)c2)cc1 [Example 7]

The next lines start with the molecule.

Structure (SMILES) | negative absorption [1] | λabs (maximum absorption wavelength) [2] | range of absorption spectra, normalized to the maximum absorption intensity ([1]; FIG. 2) | solubility in water [3]
CN(CCCCCC(=O)O)c1ccc(/N=N/c2ccc(Nc3cc(S(=O)(=O)O)c(N)c4c3C(=O)c3ccccc3C4=O)c(S(=O)(=O)O)c2)cc1 [Example 1] | did not show negative absorption | 481 nm and 626 nm | – | –
CCN(CC)c1ccc2nc3ccc(/N=N/c4ccc(N(C)CCCC(=O)O)cc4)cc3[n+](-c3ccccc3)c2c1 [BHQ-3, reference compound] | negative (−) absorption | – | 300-750 nm | not dissolved in water
C=CS(=O)(=O)CCNC(=O)CCCCCN(C)c1ccc(/N=N/c2ccc(Nc3cc(S(=O)(=O)O)c(N)c4c3C(=O)c3ccccc3C4=O)c(S(=O)(=O)O)c2)cc1 [Example 3] | – | 481 nm and 626 nm | – | –
